Data as given in publication PMC6277767, “Broad and Region-Specific Impacts of the Synthetic Cannabinoid CP 55,940 in Adolescent and Adult Female Mouse Brains” (Frontiers in Molecular Neuroscience, 2018).

How the values were obtained:
[1] = test system: rats; parameters: method as in McGregor et al., 1996; conditions: acute injection of 0.1 mg/kg, ref McGregor et al., 1996; cited from earlier work
[2] = test system: rats; parameters: method as in Higuera-Matas et al., 2010; conditions: ref Higuera-Matas et al., 2010, cited from earlier work
[3] = test system: CB1; parameters: method as in Felder et al., 1995; conditions: ref Felder et al., 1995; read-out: IC50, inhibition of adenylate cyclase at CB1; cited from earlier work
[4] = test system: CB2; parameters: method as in Felder et al., 1995; conditions: ref Felder et al., 1995; read-out: IC50, inhibition of adenylate cyclase at CB2; cited from earlier work
[5] = test system: CD1 female mouse brain lipidome; assay: Brain-region lipid levels (HPLC/MS/MS lipidomics) 2 h after single i.p. 3 mg/kg CP 55,940 vs vehicle; type: in vivo; parameters: unit: moles per gram
Protocol: The Bloomington Institutional Animal Care and Use Committee of Indiana University reviewed and approved the animal procedures. Female mice from the CD1 strain were utilized to match our study examining THC’s effects on the brain lipidome ([Leishman et al., 2018]). Mice were given a single i.p. injection of either 3 mg/kg CP or 1:1:18 cremophor:ethanol:saline vehicle (please refer to the section “3 mg/kg CP Is Relevant for Synthetic Cannabinoid Abuse and Has Stronger Effects on the Female Mouse Brain Lipidome During Adolescence” for a justification of dose and use of female mice). Three different age groups were given injections: PND 35 and PND 50 adolescents, and adult mice (PND 113). At least eight mice in each age group received CP and at least eight received vehicle. Matching the THC study time course ([Leishman et al., 2018]), mice were sacrificed via rapid decapitation 2 h after injection. Brains were immediately removed and flash-frozen in liquid nitrogen, and then stored at -80°C until dissections were performed. Brains were dissected on an ice-cold dissection plate into the following regions: STR, HIPP, CER, THAL, CTX, HYP, MID, and STEM. These abbreviations for these brain areas will be used exclusively when discussing the results generated by these specific dissections. Each dissected area was immediately placed in liquid nitrogen and then stored at -80°C until used for lipid extraction.
Tissue extracts were performed as previously described ([Bradshaw et al., 2006]; [Stuart et al., 2013]; [Raboune et al., 2014]; [Leishman et al., 2016a],[b], [2017], [2018]). First, samples were shock frozen in liquid nitrogen, weighed, and transferred to a centrifuge tube. The mass of the largest sample was multiplied by 50 to determine how many milliliters of HPLC-grade methanol (Fisher, Fair Lawn, NJ, United States) to add. Then, samples were spiked with 500 pmol deuterium-labeled NAGly (d8NAGly; Cayman Chemical, Ann Arbor, MI, United States). Samples were placed on ice in darkness for 2 h then individually homogenized and centrifuged at 19,000 × g for 20 min at 20°C. […]
As previously described ([Bradshaw et al., 2006]; [Tan et al., 2006]; [Smoum et al., 2010]; [Stuart et al., 2013]; [Tortoriello et al., 2013]; [Raboune et al., 2014]; [Leishman et al., 2016a],[b], [2017], [2018]), samples were analyzed using an Applied Biosystems API 3000 triple quadrupole mass spectrometer with electrospray ionization (Foster City, CA, United States). […]
This screening library will be referred to as the lipidome when discussing data from this study. HPLC/MS/MS data were analyzed using Analyst software (Applied Biosystems) ([Bradshaw et al., 2006]; [Tan et al., 2006]; [Stuart et al., 2013]; [Tortoriello et al., 2013]; [Raboune et al., 2014]; [Leishman et al., 2016a],[b], [2017], [2018]). […]

CCCCCCC(C)(C)c1ccc([C@@H]2C[C@H](O)CC[C@H]2CCCO)c(O)c1 [CP 55,940]
duration of anorexic effects [1]: […] | cocaine self-administration at PND 75 vs vehicle ([2]; female rats, daily 0.4 mg/kg PND 28-38): […] | DAT in the caudate-putamen ([2]; rats, CP during adolescence): upregulated | dopamine D2 receptor levels in the HIPP ([2]; rats, CP during adolescence): decreased | IC50 [3]: […] | IC50 [4]: […] | PGF2α level, Mean ([5]; cerebellum, PND 50 female mice, 3 mg/kg CP 55,940): 6.11E-11 | PGF2α level, Mean ([5]; hypothalamus, PND 35 adolescent female mice, 3 mg/kg): 3.47E-10 | PGF2α level, Mean ([5]; midbrain, PND 35 WT adolescent female mice, 3 mg/kg): 5.59E-10 | PGF2α level, Mean ([5]; thalamus, PND 50 female mice, 3 mg/kg CP 55,940): 1.3E-10
